# System: tau phosphorylation
# Assay: Tau phosphorylation after concussive injury in the rat (immunohistology for phosphorylated tau)
# Type: in vivo
# Settings: rat concussion model; 1 mg/kg intravenously at 30 minutes after induction of injury; assessed at 3 day time point
# Source text: Note that concussive injury in the rat causes extensive tau phosphorylation (B) by 3 days after the concussive event compared to non-injured animals (A).
# Having established that hyperphosphorylated tau accumulates perivascularly following concussive injury, we used an animal model of concussion to investigate whether concussion causes perivascular release of substance P. We developed a rodent model of concussion to replicate the concussive event (Donkin et al., 2004, 7th International Neurotrauma Symposium, pp 75-78, Medimond Publishers, Bologna, Italy) and subsequently determined whether substance P was released after such an event. There was a clear increase in brain perivascular substance P immunoreactivity after the concussive event (FIG. 2).
# Having shown that mechanical injury causes release of substance P after concussive injury, we then investigated whether a compound of formula (I) reduces tau hyperphosphorylation after concussive injury. […] Note that concussive injury in the rat causes extensive tau phosphorylation (B) by 3 days after the concussive event compared to non-injured animals (A). […] Thus, administration of a compound of formula (I″) prevents tau hyperphosphorylation and thus prevents the development of CTE.
structure (smiles),measurement,value
Cc1ccccc1-c1cc(N2CCN(C)CC2)ncc1C(=O)N(C)Cc1cc(C(F)(F)F)cc(C(F)(F)F)c1 [formula (I″)],effect on tau phosphorylation after concussive injury,almost complete inhibition of tau phosphorylation

# Reference: US20160136160A1, “METHOD FOR PREVENTING AND/OR TREATING CHRONIC TRAUMATIC ENCEPHALOPATHY-II” (priority 2013, published 2016)
